Experimental data as given in patent US4343808A, “Method of inhibiting sickling of sickle erythrocytes” (The Dow Chemical Company, priority 1980, dated 1982).

Experiments:
Hb-S = Hb-S (Homo sapiens, UniProt P68871+P69905, E7V); assay: Oxygen-Affinity Assay (whole Hb-S blood); format: cell-based; conditions: 37° C.
Procedure: The compounds described herein were tested in an "Oxygen-Affinity Assay" to measure the ability of the compound to influence the Hb-S oxygen affinity. There is a relationship between oxygen binding and Hb-S gelation and thus a measure of oxygen affinity is an index of Hb-S aggregation within the red blood cell. Hemoglobin S polymers decrease the overall oxygen affinity. Thus a return to normal of Hb-S oxygen affinity is a measure of decreased gelation.
For measurements of oxygen equilibria whole Hb-S blood was equilibrated in a tonometer at 37° C. and measurements were made in the presence of a 10 millimolar (mM) concentration of the test compound. Some of the compounds were also tested at a 5 mM concentration. The whole blood pH, oxygen tension, and blood PO2 were measured.
The percentage of oxygen saturation was plotted against the partial pressure of oxygen (mm Hg). The P50 value (oxygen tension at 50% saturation) was determined for each control and treated whole blood sample and the difference (ΔP50) between the control and treated whole blood sample noted. As used herein, a negative ΔP50 represents a change toward a normal Hb-S oxygen affinity and thus is a measure of the test compound's ability to inhibit the sickling of sickle erythrocytes.

[1] = system: sickle erythrocytes (intact sickle cells); assay: Blockade Erythrocyte Morphology, deoxygenation induced sickling; format: cell-based, human
Procedure: The compound 2-((4-cyanophenoxy)methyl)-2-imidazoline p-toluenesulfonate (Example 2) and 2-((3-cyanophenoxy)methyl)-2-imidazoline p-toluenesulfonate (Example 4) were tested for anti-sickling activity using a suspension of intact sickle cells as follows:
Blood collected from individuals with homozygous sickle cell disease, as well as normal blood, was anticoagulated with ethylenediaminetetraacetic acid (EDTA) and refrigerated until used. To portions of the blood samples were added appropriate volumes of a solution of the compound to be tested so that final concentrations of 0.0125 molar (M), 0.025 M, 0.05 M or 0.1 M were obtained, and the mixtures were incubated at 37° C. for 30 minutes. The test compounds were dissolved in saline. Appropriate volumes of saline were added to the control samples. Urea in invert sugar (UIS) at 0.05 M to 1.5 M concentrations was used as an agent capable of transforming sickled cells into normal forms and was therefore used as a positive control.
Anoxic sickling (deoxygenation) was induced by exposing sickle blood to a hydrated 95% nitrogen, 5% carbon dioxide atmosphere for 60 minutes.
After the sickling stimulus, slides were prepared. A volume of 0.2 ml of sickled cells were fixed in 1.0 ml of 3.2% glutaraldehyde in 0.1 M cacodylic buffer. Wet slides were prepared and sealed.
The slides were scored for normal cells (Typ.), atypical cells (Atyp.) and sickled cells (Sickle) on the basis of counting 300 cells per slide.

[2] = target: T1, deoxyhemoglobin S (Deoxy Hb-S) (Homo sapiens, UniProt P68871+P69905, E7V); assay: Solubility of deoxyhemoglobin S (hemoglobin gelation); format: biochemical; conditions: 10 mM
T1 construct: native tetramer alpha2 betaS2
Procedure: The compound 2-((3-cyanophenoxy)methyl)-2-imidazoline p-toluenesulfonate was tested to determine its ability to inhibit sickle erythrocyte hemoglobin gelation as follows:
The solubility of deoxyhemoglobin S (Deoxy Hb-S) was determined utilizing substantially the same procedure described by Behe, M. J., Englander, S. W., Biochemistry 18: 4196-4201 (1979). Assays were done to determine the equilibrium solubility of Hb-S in the presence of inhibitor (i.e., test compound). […] Test mixtures were placed in a 4 centimeter (cm) length of thin quartz tubing sealed at one end, and then incubated at 37° C. for two hours to achieve gelation, and then re-equilibrated in a water bath (20° C.) for 20 minutes. The quartz tubing containing the test mixture was then placed in a glycerol filled centrifuge tube (topped by a rubber ring to center the quartz tubing) and centrifuged for two hours at 140,000 times gravity. […] The concentration of the hemoglobin in the supernatant was determined by measuring the absorbance at 540 nanometers (nm) after a 300-fold dilution with normally oxygenated buffer.
The Relative Solubility is a measure of the ability of the test compound to increase the solubility of deoxyhemoglobin S and is readily determined by comparing the solubility of the treated (i.e., test compound present) sample versus the control (i.e., test compound absent) sample.

[3] = deoxygenation, 0.0125 M, vs control
[4] = deoxygenation, 0.025 M, vs control
[5] = deoxygenation, 0.05 M, vs control

## CSc1ccc(OCC2=NCCN2)cc1C [Example 5, 2-((4-(Methylthio)-m-tolyloxy)methyl)-2-imidazoline]
Hb-S; 5 mM
  Δ P50 (oxygen tension at 50% saturation, difference control vs treated): -11 mm Hg
Hb-S; 10 mM
  Δ P50 (oxygen tension at 50% saturation, difference control vs treated): -14.7 mm Hg

## O=[N+]([O-])c1cccc(OCC2=NCCN2)c1 [Example 1]
Hb-S; 5 mM
  Δ P50 (oxygen tension at 50% saturation, difference control vs treated): -2 mm Hg
Hb-S; 10 mM
  Δ P50 (oxygen tension at 50% saturation, difference control vs treated): -10.6 mm Hg

## Cc1ccc(S(=O)(=O)O)cc1.N#Cc1cccc(OCC2=NCCN2)c1 [Example 4, 2-((3-cyanophenoxy)methyl)-2-imidazoline p-toluenesulfonate]
[1]; Homo sapiens, Erythrocyte, deoxygenation, 0.0125 M, vs control, read-out: Percent Change, Sickle (sickled cells)
  inhibition at 12500 µM: 33%
[1]; Homo sapiens, Erythrocyte, deoxygenation, 0.025 M, vs control, read-out: Percent Change, Sickle (sickled cells)
  inhibition at 25000 µM: 69%
[1]; Homo sapiens, Erythrocyte, deoxygenation, 0.05 M, vs control, read-out: Percent Change, Sickle (sickled cells)
  inhibition at 50000 µM: 77%
[1]; Table 1
  interference with deoxygenation induced sickling: interfered with deoxygenation induced sickling
[1]; deoxygenation, 0.0125 M
  Lysis: -
[1]; [3]
  Percent Change, Atyp. (atypical cells): -65%
  Percent Change, Typ. (normal cells): +201%
[1]; deoxygenation, 0.025 M
  Lysis: -
[1]; [4]
  Percent Change, Atyp. (atypical cells): -78%
  Percent Change, Typ. (normal cells): +316%
[1]; deoxygenation, 0.05 M
  Lysis: -
  cell lysis (in words): without the appearance of cell lysis
[1]; [5]
  Percent Change, Atyp. (atypical cells): -74%
  Percent Change, Typ. (normal cells): +407%
Hb-S; 5 mM
  Δ P50 (oxygen tension at 50% saturation, difference control vs treated): -1 mm Hg
Hb-S; 10 mM
  Δ P50 (oxygen tension at 50% saturation, difference control vs treated): -13.7 mm Hg
[2]
  solubility of deoxyhemoglobin S (in words): increased

## CS(=O)(=O)c1ccc(OCC2=NCCN2)cc1.Cl [Example 3, 2-((4-(Methylsulfonyl)phenoxy)methyl)-2-imidazoline Hydrochloride]
Hb-S; 10 mM
  Δ P50 (oxygen tension at 50% saturation, difference control vs treated): -7.0 mm Hg

## Cl.c1ccc(OCC2=NCCN2)cc1 [Example 8, 2-(Phenoxymethyl)-2-imidazoline Hydrochloride]
Hb-S; 10 mM
  Δ P50 (oxygen tension at 50% saturation, difference control vs treated): -5.0 mm Hg

## Cl.FC(F)(F)c1cccc(OCC2=NCCN2)c1 [Example 7, 2-(3-Trifluoromethylphenoxy)methyl-2-imidazoline Hydrochloride]
Hb-S; 10 mM
  Δ P50 (oxygen tension at 50% saturation, difference control vs treated): -3.0 mm Hg

## Cl.FC(F)(F)c1cccc(NCC2=NCCN2)c1 [Example 6, 2-((3-Trifluoromethylanilino)methyl)-2-imidazoline Hydrochloride]
Hb-S; 10 mM
  Δ P50 (oxygen tension at 50% saturation, difference control vs treated): -4.3 mm Hg
